Experimental data published in US4169944A, “Cholesterol biosynthesis inhibitors” (University Patents, Inc., priority 1977, dated 1979).
Values joined by “and” are separate entries in the source; they are usually repeats but may differ in a detail not shown here. Identical values can stand only once. Like-named read-outs stand apart in the source and are kept apart here.

Tests used:
HMG-CoA reductase [1] = biological target: T1, HMG-CoA reductase (Rattus norvegicus, UniProt P51639); assay: Inhibition of purified HMG-CoA reductase; assay type: biochemical; settings: 1.1 mM, purified enzyme
T1 construct: from tissue; host or cells: rat liver microsomes, crude soluble extract
T1 sequence (P51639 1-887): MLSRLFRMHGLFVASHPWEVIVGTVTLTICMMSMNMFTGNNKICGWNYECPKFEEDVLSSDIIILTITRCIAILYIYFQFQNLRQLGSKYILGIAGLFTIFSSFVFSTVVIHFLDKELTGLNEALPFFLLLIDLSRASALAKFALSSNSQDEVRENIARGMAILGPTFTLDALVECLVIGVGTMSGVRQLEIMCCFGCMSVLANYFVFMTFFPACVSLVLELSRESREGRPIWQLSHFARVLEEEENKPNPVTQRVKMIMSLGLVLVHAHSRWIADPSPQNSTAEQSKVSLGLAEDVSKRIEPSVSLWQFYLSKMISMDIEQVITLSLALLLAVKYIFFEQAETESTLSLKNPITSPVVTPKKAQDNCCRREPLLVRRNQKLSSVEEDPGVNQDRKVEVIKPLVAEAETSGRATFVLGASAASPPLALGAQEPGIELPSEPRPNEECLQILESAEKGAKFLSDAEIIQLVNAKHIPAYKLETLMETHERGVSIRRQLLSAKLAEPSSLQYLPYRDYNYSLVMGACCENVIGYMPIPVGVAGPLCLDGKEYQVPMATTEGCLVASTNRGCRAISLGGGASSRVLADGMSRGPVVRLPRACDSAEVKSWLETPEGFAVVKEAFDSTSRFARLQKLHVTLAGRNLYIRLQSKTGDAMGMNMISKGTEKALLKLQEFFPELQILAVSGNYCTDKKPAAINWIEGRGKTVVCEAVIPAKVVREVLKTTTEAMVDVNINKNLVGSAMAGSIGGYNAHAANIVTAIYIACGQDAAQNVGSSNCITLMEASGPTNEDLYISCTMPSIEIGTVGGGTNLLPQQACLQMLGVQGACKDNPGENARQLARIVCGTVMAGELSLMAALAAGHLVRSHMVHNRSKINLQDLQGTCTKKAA
Description: Hmg-coA reductase was purified from rat liver microsomes as previously described (2). HMG-CoA reductase activity assay and incubation conditions were conducted as previously described (2,3).

HMG-CoA reductase [2] = biological target: T1, HMG-CoA reductase; assay: Liver microsomal HMG-CoA reductase activity in rats treated with trifluoro-HMG-CoA; assay type: in vivo; settings: 0.2 mg per intraperitoneal injection, 6 days
Description: (§1) Control rats received an injection of the vehicle (KHCO3 buffer) used for trifluoro-HMG-CoAinjection. Liver microsomes were isolated from these animals, and HMG-CoA reductase activity was measured. The control group average HMG-CoA reductase specific activity was 1.25 nmol mevalonate formed/min/mg protein. […] This difference was statistically significant at the p=0.005 level.
(§2) Twelve male rats of identical age were used. Six rats served as the control group; these rats received an intraperitoneal injection of KHCO3 buffer (0.2 ml) once per day (3:00 pm) for six days, except on the final day when additional injections were given at 10:00 pm and 6:00 am the following day. The drug-treated group of six rats received intraperitoneal injections of trifluoro-HMG-CoA (0.2 mg) in KHCO3 buffer (0.2 ml) on the same schedule as described above for the control group. The data were further analyzed by the t statistic between the mean for each group.

[3] = biological target: T2, rat liver microsomal HMG-CoA reductase (Rattus norvegicus, UniProt P51639); assay: Kinetics of inhibition of rat liver microsomal HMG-CoA reductase; assay type: biochemical
T2 construct: rat liver microsomal HMG-CoA reductase; from tissue; host or cells: rat liver microsomes
T2 sequence (P51639 1-887): T1 sequence (P51639 1-887)
Description: Table III summarizes the results of an experiment in which the kinetics of inhibition of rat liver microsomal HMG-CoA reductase by trifluoro-HMG-CoA were measured.
The velocity of mevalonate formation was first measured in the absence of trifluoro-HMG-CoA, varying the concentration of the substrate [3-^14 C]HMG-CoA. Then the same experiment was conducted in the presence of trifluoro-HMG-CoA (600 μM). The data were analyzed by means of an Eadie-Hofstee plot.

[4] = test system: incorporation of [1-^14 C] acetate into cholesterol (nonsaponifiable extract) in intact rat liver cells; assay: Incorporation of [1-^14 C] acetate into cholesterol (nonsaponifiable extract) in intact liver cells; assay type: cell-based
Description: Duplicate samples contained 3.7 ml of hepatocyte suspension and 0.28 ml of saturated KHCO3 (pH […]) which contained varying final concentrations (0, 0.01, 0.10 or 1.0 mM) of trifluoro-HMG-CoA. Preincubation was conducted for 60 minutes. 10 μCi of [1-^14 C] sodium acetate, dissolved in Krebs Ringer bicarbonate buffer, was then added to each sample. Incubation was conducted for 120 minutes in a Dubnoff shaker. Saponification and extraction were conducted as previously described (4).

[5] = Total body weights and liver weights of treated and control rats; assay type: in vivo, rat; settings: 0.2 mg per intraperitoneal injection, 6 days
Description: as §1, §2

HMG-CoA reductase [6] = biological target: T1, HMG-CoA reductase; assay: HMG-CoA reductase activity in crude soluble extract of rat liver microsomes; assay type: biochemical; settings: for HMG-CoA reductase activity: 1.98 without inhibitor
Description: Crude soluble extract from rat liver microsomes was prepared as previously described (2). HMG-CoA reductase activity and incubation conditions were conducted as previously described (2,3).
The relative potencies, as HMG-CoA reductase inhibitors, of trifluoro-HMG-CoA, trifluoro-HMG and trifluoro-HMG anhydride were investigated.
The inhibition of HMG-CoA reductase activity was measured in crude soluble extract from rat liver microsomes. Crude soluble extract from rat liver microsomes was prepared as previously described (2). HMG-CoA reductase activity and incubation conditions were conducted as previously described (2,3). The HMG-CoA reductase activity of the crude soluble extract in the absence of inhibitor was considered as 100% and activities measured in the presence of inhibitors were compared to this norm.

[7] = substrate: CC(O)(CC(=O)O)CC(=O)SCCNC(=O)CCNC(=O)[C@H](O)C(C)(C)COP(=O)(O)OP(=O)(O)OC[C@H]1O[C@@H](n2cnc3c(N)ncnc32)[C@H](O)[C@@H]1OP(=O)(O)O; assay: cells, lysate or membranes named; settings: other: absence of trifluoro-HMG-CoA; Eadie-Hofstee plot
[8] = 1 mM, crude soluble extract, relative potencies (Table VI), read-out: Inhibition of HMG-CoA reductase activity

CC(C)(COP(=O)(O)OP(=O)(O)OC[C@H]1O[C@@H](n2cnc3c(N)ncnc32)[C@H](O)[C@@H]1OP(=O)(O)O)[C@@H](O)C(=O)NCCC(=O)NCCSC(=O)CC(O)(CC(=O)O)C(F)(F)F (stereo partly drawn) [Trifluoro-HMG-CoA, 3-Hydroxy-3-Trifluoromethylglutaryl-Coenzyme A]
inhibition at 1100 µM (HMG-CoA reductase [1]): 73%
HMG-CoA reductase specific activity (HMG-CoA reductase [1]; 931.9 without inhibitor): 253.5 nmol mevalonate formed/min/mg
HMG-CoA reductase specific activity, average of treated rats (HMG-CoA reductase [2]; average of six rats, control average 1.25, p=0.005): 0.63 nmol mevalonate formed/min/mg protein
HMG-CoA reductase specific activity, individual treated rats (HMG-CoA reductase [2]; individual rat): 0.42 nmol mevalonate formed/min/mg protein and 0.59 nmol mevalonate formed/min/mg protein and 0.83 nmol mevalonate formed/min/mg protein and 0.58 nmol mevalonate formed/min/mg protein and 0.95 nmol mevalonate formed/min/mg protein and 0.40 nmol mevalonate formed/min/mg protein
Ki ([3]; rat liver microsomes, substrate HMG-CoA, Eadie-Hofstee plot): 54 µM
Inhibition type ([3]; versus natural substrate HMG-CoA): competitive inhibitor
inhibition at 10 µM ([4]; Rattus norvegicus, 0.01 mM, preincubation 60 minutes, incubation 120 minutes): 34%
inhibition at 100 µM ([4]; Rattus norvegicus, 0.10 mM, preincubation 60 minutes, incubation 120 minutes): 67%
inhibition at 1000 µM ([4]; Rattus norvegicus, 1.00 mM, preincubation 60 minutes, incubation 120 minutes): 88%
IC50 ([4]; Rattus norvegicus, calculated from the Table IV experiment, intact liver cells, read-out: Concentration for 50% inhibition of cholesterol formation): ~40 µM
Inhibition of cholesterol formation (in words) ([4]; concentrations as low as 0.01 mM): significant inhibition of cholesterol formation
Total body weights and liver weights, treated versus control group [5]: not significantly different
inhibition at 10 µM (HMG-CoA reductase [6]; 0.01 mM, crude soluble extract): 7%
HMG-CoA reductase activity (HMG-CoA reductase [6]; 0.01 mM, crude soluble extract): 1.85 nmol mevalonate formed/min/ml
inhibition at 100 µM (HMG-CoA reductase [6]; 0.10 mM, crude soluble extract): 35%
HMG-CoA reductase activity (HMG-CoA reductase [6]; 0.10 mM, crude soluble extract): 1.29 nmol mevalonate formed/min/ml
Relative potency versus the free acid [3-hydroxy-3-trifluoromethylglutaric acid] (HMG-CoA reductase [6]; 1 mM, crude soluble extract): substantially more potent inhibitor than the free acid
inhibition at 1000 µM (HMG-CoA reductase [6]; 1.00 mM, crude soluble extract (Table I), read-out: Inhibition): 78%
HMG-CoA reductase activity (HMG-CoA reductase [6]; 1.00 mM, crude soluble extract): 0.44 nmol mevalonate formed/min/ml
inhibition at 1000 µM (HMG-CoA reductase [6]; [8]): 78%
Inhibition (in words) (HMG-CoA reductase [6]; 0.1 and 1.0 mM, crude soluble extract): significant inhibition

O=C1CC(O)(C(F)(F)F)CC(=O)O1 [Trifluoro-HMG-anhydride, 3-Hydroxy-3-Trifluoromethylglutaric Anhydride]
inhibition at 1000 µM (HMG-CoA reductase [6]; [8]): 27%

O=C(O)CC(O)(CC(=O)O)C(F)(F)F [Trifluoro-HMG, 3-Hydroxy-3-Trifluoromethylglutaric Acid]
inhibition at 1000 µM (HMG-CoA reductase [6]; [8]): 11%

B1: rat liver microsomal HMG-CoA reductase (Rattus norvegicus) (protein)
chain: T1 sequence (P51639 1-887)
Km [7]: 34.5 µM
